According to patent US20180339976A1, “NOVEL TRIAZOLE DERIVATIVES” (priority 2015, published 2018):

assay: Log P by HPLC on reversed phase columns (EEC directive 79/831 Annex V.A8); format: physicochemical; conditions: not given
Experimental: Measurement of Log P values was performed according to EEC directive 79/831 Annex V.A8 by HPLC (High Performance Liquid Chromatography) on reversed phase columns with the following methods: • ^[a]
If more than one Log P value is available within the same method, all the values are given and separated by “+”.
Lambda-max-values were determined using UV-spectra from 200 nm to 400 nm and the peak values of the chromatographic signals.

LogP	chromatographic logP	SMILES
1.13^[a]		OC(Cc1ccncc1F)(Cn1cncn1)c1ccccc1 (stereo not shown) [Example I-36]
3.02^[a]		OC(Cc1cc(F)ncc1Cl)(Cn1cncn1)c1ccc(Oc2ccc(F)cc2F)cc1 (stereo not shown) [Example I-54]
2.27^[a]		OC(Cc1cc(Cl)ncc1F)(Cn1cncn1)c1ccc(Cl)cc1 (stereo not shown) [Example I-40]
1.76^[a]		OC(Cc1ccncc1Cl)(Cn1cncn1)c1ccc(F)cc1F (stereo not shown) [Example I-30]
1.86^[a]		OC(Cc1ccnc(Cl)c1)(Cn1cncn1)c1ccc(F)cc1F (stereo not shown) [Example I-44]
2.23^[a]		OC(Cc1ccnc(Cl)c1F)(Cn1cncn1)c1ccc(Cl)cc1 (stereo not shown) [Example I-10]
1.26^[a]		OC(Cc1ccncc1F)(Cn1cncn1)c1ccc(F)cc1 (stereo not shown) [Example I-13]
2.27^[a]		OC(Cc1ccncc1F)(Cn1cncn1)c1ccc(Oc2ccc(F)cc2F)cc1 (stereo not shown) [Example I-20]
2.69^[a]		OC(Cc1ccnc(Cl)c1F)(Cn1cncn1)c1ccc(Cl)cc1Cl (stereo not shown) [Example I-09]
	3.31	Fc1cc(Cl)ccc1C1(Cc2cccnc2Cl)CO1 (stereo not shown) [XII-1, 2-chloro-3-[[2-(4-chloro-2-fluoro-phenyl)oxiran-2-yl]methyl]pyridine]
1.54^[a]		OC(Cc1ccncc1F)(Cn1cncn1)c1ccc(Cl)cc1 (stereo not shown) [Example I-31]
2.27^[a]		OC(Cc1ccnc(Cl)c1F)(Cn1cncn1)c1ccccc1Cl (stereo not shown) [Example I-07]
1.96^[a]		OC(Cc1ccnc(Cl)c1)(Cn1cncn1)c1ccc(Cl)cc1 (stereo not shown) [Example I-47]
	2.15	OC(Cc1cccnc1Cl)(Cn1cncn1)c1ccc(Cl)cc1F (stereo not shown) [Example I-29, 2-(4-chloro-2-fluoro-phenyl)-1-(2-chloro-3-pyridyl)-3-(1,2,4-triazol-1-yl)propan-2-ol]
1.47^[a]		N#Cc1ccc(C(O)(Cc2cccnc2Cl)Cn2cncn2)cc1 (stereo not shown) [Example I-35]
1.69^[a]		OC(Cc1ccnc(Cl)c1)(Cn1cncn1)c1ccc(F)cc1 (stereo not shown) [Example I-05]

SMILES	LogP	chromatographic logP
OC(Cc1ccncc1Cl)(Cn1cncn1)c1ccc(Oc2ccc(F)cc2F)cc1 (stereo not shown) [Example I-19]	2.57^[a]	
OC(Cc1ccncc1F)(Cn1cncn1)c1ccc(Oc2ccccc2)cc1 (stereo not shown) [Example I-03]	2.13^[a]	
OC(Cc1ccncc1Cl)(Cn1cncn1)c1ccc(Oc2ccc(Cl)cc2)cc1 (stereo not shown) [Example I-06]	2.90^[a]	
OC(Cc1cc(F)ncc1Cl)(Cn1cncn1)c1ccc(F)cc1 (stereo not shown) [Example I-15]	2.12^[a]	
OC(Cc1ccnc(Cl)c1F)(Cn1cncn1)c1ccc(Oc2ccccc2)cc1 (stereo not shown) [Example I-46]	2.84^[a]	
OC(Cc1ccnc(Cl)c1F)(Cn1cncn1)c1ccc(F)cc1F (stereo not shown) [Example I-08, 1-(2-chloro-3-fluoro-4-pyridyl)-2-(2,4-difluorophenyl)-3-(1,2,4-triazol-1-yl)propan-2-ol]		2.14
OC(Cc1ccncc1Cl)(Cn1cncn1)c1ccc(F)cc1 (stereo not shown) [Example I-18]	1.57^[a]	
OC(Cc1ccncc1F)(Cn1cncn1)c1ccc(Cl)cc1Cl (stereo not shown) [Example I-53]	2.00^[a]	
OC(Cc1cc(Cl)ncc1F)(Cn1cncn1)c1ccc(F)cc1F (stereo not shown) [Example I-45]	2.13^[a]	

same assay, conditions: Table 1, formula (I); method [a]: LC-UV, acidic range, 0.1% formic acid in water and acetonitrile

SMILES	LogP
OC(Cc1cc(Cl)ncc1F)(Cn1cncn1)c1ccc(-c2ccccc2)cc1 (stereo not shown) [Example I-26]	2.88^[a]
OC(Cc1cc(F)ncc1Cl)(Cn1cncn1)c1ccc(-c2ccccc2)cc1 (stereo not shown) [Example I-27]	3.02^[a]
OC(Cc1ccncc1Cl)(Cn1cncn1)c1ccc(-c2ccccc2)cc1 (stereo not shown) [Example I-02]	2.46^[a]

same assay, conditions: Table 2, epoxides of formula (XII); method [a]: LC-UV, acidic range, 0.1% formic acid in water and acetonitrile

SMILES	LogP
Clc1cncc(Cl)c1CC1(c2ccccc2)CO1 (racemic) [XII-58]	3.53^[a]
Fc1cnccc1CC1(c2ccc(Oc3ccccc3)cc2)CO1 (stereo not shown) [XII-7]	3.37^[a]
Fc1cnc(Cl)cc1CC1(c2ccc(Cl)cc2)CO1 (stereo not shown) [XII-17]	3.56^[a]
Fc1ccc(C2(Cc3cc(F)ncc3Cl)CO2)cc1 (racemic) [XII-39]	3.37^[a]
Fc1ccc(C2(Cc3c(Cl)cncc3Cl)CO2)cc1 (racemic) [XII-56]	3.58^[a]
Fc1c(CC2(c3ccc(Oc4ccccc4)cc3)CO2)ccnc1Cl (racemic) [XII-48]	4.20^[a]
Fc1ccc(C2(Cc3ccnc(Cl)c3F)CO2)c(F)c1 (racemic) [XII-47]	3.26^[a]
Fc1ccc(C2(Cc3cc(Cl)ncc3F)CO2)c(F)c1 (stereo not shown) [XII-20]	3.24^[a]
Fc1ccc(C2(Cc3ccncc3F)CO2)c(F)c1 (stereo not shown) [XII-6]	2.38^[a]
Fc1c(CC2(c3ccc(Cl)cc3)CO2)ccnc1Cl (racemic) [XII-43]	3.58^[a]
Fc1ccc(C2(Cc3ccnc(Cl)c3)CO2)c(F)c1 (stereo not shown) [XII-11]	2.93^[a]
Fc1ccc(C2(Cc3c(Cl)cncc3Cl)CO2)c(F)c1 (racemic) [XII-55]	3.68^[a]
Fc1cc(CC2(c3ccc(Cl)cc3Cl)CO2)c(Cl)cn1 (racemic) [XII-36]	4.45^[a]
Fc1ccc(C2(Cc3cc(Cl)ncc3F)CO2)cc1 (stereo not shown) [XII-16]	3.15^[a]
Clc1cncc(Cl)c1CC1(c2ccc(-c3ccccc3)cc2)CO1 (racemic) [XII-53]	4.89^[a]
Fc1ccc(Oc2ccc(C3(Cc4ccncc4F)CO3)cc2)c(F)c1 (stereo not shown) [XII-5]	3.37^[a]
Fc1cnccc1CC1(c2ccc(Cl)cc2)CO1 (stereo not shown) [XII-2]	2.65^[a]
Fc1cc(CC2(c3ccc(Oc4ccccc4)cc3)CO2)c(Cl)cn1 (racemic) [XII-40]	4.57^[a]
Fc1ccc(C2(Cc3ccnc(Cl)c3)CO2)cc1 (stereo not shown) [XII-14]	2.76^[a]
Fc1cnc(Cl)cc1CC1(c2ccc(-c3ccccc3)cc2)CO1 (stereo not shown) [XII-22]	4.28^[a]
Fc1cnccc1CC1(c2ccc(-c3ccccc3)cc2)CO1 (stereo not shown) [XII-8]	3.37^[a]
Cc1cc(C)c(C2(Cc3ccncc3Cl)CO2)c(C)c1 (racemic) [XII-60]	4.15^[a]
Fc1ccc(Oc2ccc(C3(Cc4cc(F)ncc4Cl)CO3)cc2)c(F)c1 (racemic) [XII-41]	4.51^[a]
Clc1ccc(C2(Cc3ccnc(Cl)c3)CO2)cc1 (stereo not shown) [XII-15]	3.19^[a]
